# Test results reported in paper PMC5318439, “The Novel Toll-Like Receptor 2 Agonist SUP3 Enhances Antigen Presentation and T Cell Activation by Dendritic Cells” (Frontiers in Immunology, 2017).
# Where a SMILES comes first, the peptide text is derived from it. The star is where a group is joined. X1 = CCCCCCCCCCCCCCNC(=O)OC[C@H](C*)OC(=O)NCCCCCCCCCCCCCC; Palmitoyl = CCCCCCCCCCCCCCCC(=O)*
# System: CD11b^+ cDCs
# Experiment: Cytokine production by purified CD11b+ cDCs (ELISA)
# Assay type: cell-based, mice
# Conditions: 200 nM, GM-CSF 20 ng/mL, 24 h, compared with CpG 20 nM
# Experimental: Splenic DCs (5 × 10^5 cells/mL) were stimulated by Pam3 (200 nM), SUP3 (200 nM), or CpG ODN 1668 (20 nM; Adipogen IAX-200-001) in the GM-CSF (20 ng/mL) supplemented medium for indicated periods. Cell culture supernatants were harvested at indicated time points and stored at −40°C. RAW 264.7 cells and GMDCs were stimulated by lipopolysaccharide (LPS) (20 ng/mL; Adipogen IAX-100-013), Pam3, or SUP3 (both at 200 nM) for 24 h. For in vivo administration, Pam3 (2 nmol per mouse), SUP3 (2 nmol per mouse), or LPS (1 µg per mouse) were intravenously (i.v.) injected via tail veins. Serum was obtained through tail vein bleeding and centrifuged after coagulation and stored at −40°C. Cytokines (IL-6, eBioscience 88-7064; TNFα, eBioscience 88-7324; IL-12p40, BioLegend 431604), chemokine (MIP1α, R&D Systems DY450-05), and total IgM (eBioscience, 88-50470) were quantified by ELISA kits following the instructions of manufacturers.
# Figure 5 SUP3 enhanced antigen presentation ability of CD11b^+ conventional dendritic cells (cDCs) and production of antibodies against thymus-dependent (TD) antigens. […] Three days after immunization, division of OT-II CD4^+ T cells from inguinal lymph nodes were analyzed by flow cytometry (B). Absolute numbers of proliferated OT-II CD4^+ T cells were calculated in (C). […] (D) The division of OT-II cells was measured by reduced level of CFSE-labeling. […]
row,Compound,"IL-6, TNFα, and MIP1α production by CD11b+ cDCs"
1,"CCCCCCCCCCCCCCCC(=O)N[C@@H](CSC[C@@H](COC(=O)NCCCCCCCCCCCCCC)OC(=O)NCCCCCCCCCCCCCC)C(=O)NCC(=O)N[C@@H](CCCCN)C(=O)N[C@@H](CCCCN)C(=O)N[C@@H](CCCCN)C(=O)O [SUP3, (2S,5S,8S,14R,18R)-2,5,8-tris(4-aminobutyl)-4,7,10,13,21-pentaoxo-14-palmitamido-18-((tetradecylcarbamoyl)oxy)-20-oxa-16-thia-3,6,9,12,22-pentaazahexatriacontan-1-oic acid] (Palmitoyl-C(X1)GKKK-OH)",lower level
2,Pam3CSK4 [reference compound],lower level
